Results on one compound are retold here after BindingDB's records for doi:10.1021/jm200293r (University of Eastern Finland, 2011).

This assay addresses Diamine acetyltransferase 1 (Mus musculus) (UniProt P48026). In words: Competitive inhibition at mouse recombinant SSAT expressed in Escherichia coli strain BL21(DE3).

pKi: −log10 of the molar value.

Sequence of Diamine acetyltransferase 1 (Mus musculus) (P48026 whole entry, looked up): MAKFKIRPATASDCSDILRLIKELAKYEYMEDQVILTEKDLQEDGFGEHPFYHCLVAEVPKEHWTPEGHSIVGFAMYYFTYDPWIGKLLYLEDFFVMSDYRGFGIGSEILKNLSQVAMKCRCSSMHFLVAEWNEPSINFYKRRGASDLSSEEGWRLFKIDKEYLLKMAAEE

`CC(CCN)NCCCCN` (stereo unspecified): the pKi was 4.28.

A word on the pKi: it is the Ki on a negative log10 scale, so that one unit is a factor of ten.
